Data published in patent publication US12312332B2 (Merck Sharp & Dohme LLC., priority 2019, dated 2025).
pEC50: −log10 of the molar value.

Target: T1, human OX2R (Homo sapiens, UniProt O43614)
T1 construct: expressed in transfected cells; host or cells: Chinese hamster ovary (CHO) cells, kept under G418 selection
T1 sequence (O43614 1-444): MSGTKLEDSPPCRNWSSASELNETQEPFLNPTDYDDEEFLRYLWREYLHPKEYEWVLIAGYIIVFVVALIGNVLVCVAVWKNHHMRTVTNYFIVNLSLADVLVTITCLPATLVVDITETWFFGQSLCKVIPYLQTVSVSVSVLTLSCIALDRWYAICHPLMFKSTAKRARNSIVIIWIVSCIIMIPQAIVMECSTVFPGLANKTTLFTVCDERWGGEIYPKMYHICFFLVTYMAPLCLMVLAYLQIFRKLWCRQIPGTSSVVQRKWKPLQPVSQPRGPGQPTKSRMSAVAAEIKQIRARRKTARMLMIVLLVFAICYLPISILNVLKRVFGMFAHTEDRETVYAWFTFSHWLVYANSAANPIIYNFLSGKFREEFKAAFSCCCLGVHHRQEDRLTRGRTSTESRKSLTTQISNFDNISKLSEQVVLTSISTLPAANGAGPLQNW
Test: IPOne (IP-One) orexin receptor agonist assay in CHO cells expressing human OX2R
Format: cell-based
Settings: for pEC50: CHO cells expressing human OX2R, IP-One detection, 2 hours incubation, four parameter logistic fit, read-out: OX2R Potency, EC50; for % max agonist effect (Emax): human OX2R, percentage of sample raw value/mean max effect (reference compound at 1 uM with 100% activity)

Row | pEC50 | % max agonist effect (Emax) [%] | Compound
1 | 5.72 | 92.1 | Cc1ncc(N2CC[C@H](NS(C)(=O)=O)[C@@H]2CO[C@H]2CC[C@@H](c3ccccc3)CC2)s1 (relative stereo) [Example 9, N-((CIS)-1-(2-methylthiazol-5-yl)-2-((((CIS)-4-phenylcyclohexyl)oxy)methyl)pyrrolidin-3-yl)methanesulfonamide]
2 | 7.04 | 100.1 | CS(=O)(=O)N[C@H]1CCN(c2cnc3cc[nH]c3c2)[C@H]1CO[C@H]1CC[C@@H](c2ccccc2)CC1 (relative stereo) [Example 7, N-((CIS)-2-((((CIS)-4-phenylcyclohexyl)oxy)methyl)-1-(1H-pyrrolo[3,2-b]pyridin-6-yl)pyrrolidin-3-yl)methanesulfonamide]
3 | 8.96 | 102.4 | CS(=O)(=O)N[C@H]1CCN(c2cc(O)c(Cl)cn2)[C@H]1CO[C@H]1CC[C@@H](c2ccccc2)CC1 [Example 113, N-((2R,3S)-1-(5-chloro-4-hydroxypyridin-2-yl)-2-((((CIS)-4-phenylcyclohexyl)oxy)methyl)pyrrolidin-3-yl)methanesulfonamide]
4 | 6.79 | 100.7 | CS(=O)(=O)N[C@H]1CCN(c2ncccc2OC(F)(F)F)[C@H]1CO[C@H]1CC[C@@H](c2ccccc2)CC1 [Example 127]
5 | < 5.00 | 57.5 | CS(=O)(=O)N[C@H]1CCN(c2ccc(C(F)F)cc2F)[C@H]1CO[C@H]1CC[C@@H](c2ccccc2)CC1 [Example 22, N-((2R,3S)-1-(4-(difluoromethyl)-2-fluorophenyl)-2-((((CIS)-4-phenylcyclohexyl)oxy)methyl)pyrrolidin-3-yl)methanesulfonamide]
6 | 6.84 | 101.0 | CS(=O)(=O)N[C@H]1CCN(c2ncns2)[C@H]1CO[C@H]1CC[C@@H](c2ccccc2)CC1 [Example 33, N-((2R,3S)-2-((((CIS)-4-phenylcyclohexyl)oxy)methyl)-1-(1,2,4-thiadiazol-5-yl)pyrrolidin-3-yl)methanesulfonamide]
7 | 5.92 | 93 | COC(=O)c1csc(N2CC[C@H](NS(C)(=O)=O)[C@@H]2CO[C@H]2CC[C@@H](c3ccccc3)CC2)n1 [Example 103, methyl 2-((2R,3S)-3-(methylsulfonamido)-2-((((CIS)-4-phenylcyclohexyl)oxy)methyl)pyrrolidin-1-yl)thiazole-4-carboxylate]
8 | 6.65 | 100.6 | COc1ccc(N2CC[C@H](NS(C)(=O)=O)[C@@H]2CO[C@H]2CC[C@@H](c3ccccc3)CC2)cn1 [Example 53, N-((2R,3S)-1-(6-methoxypyridin-3-yl)-2-((((CIS)-4-phenylcyclohexyl)oxy)methyl)pyrrolidin-3-yl)methanesulfonamide]
9 | 4.98 | 68.8 | Cc1nnc(-c2ccc(N3CC[C@H](NS(C)(=O)=O)[C@@H]3CO[C@H]3CC[C@@H](c4ccccc4)CC3)cc2)o1 (relative stereo) [Example 12, N-((CIS)-1-(4-(5-methyl-1,3,4-oxadiazol-2-yl)phenyl)-2-((((CIS)-4-phenylcyclohexyl)oxy)methyl)pyrrolidin-3-yl)methanesulfonamide]
10 | 7.53 | 101.1 | Cn1cc(F)c(=O)cc1N1CC[C@H](NS(C)(=O)=O)[C@@H]1CO[C@H]1CC[C@@H](c2ccccc2)CC1 [Example 88, N-((2R,3S)-1-(5-fluoro-1-methyl-4-oxo-1,4-dihydropyridin-2-yl)-2-((((CIS)-4-phenylcyclohexyl)oxy)methyl)pyrrolidin-3-yl)methanesulfonamide]
11 | 5.97 | 97.3 | CS(=O)(=O)N[C@H]1CCN(c2cncc3ccccc23)[C@H]1CO[C@H]1CC[C@@H](c2ccccc2)CC1 (relative stereo) [Example 4, N-((CIS)-1-(isoquinolin-4-yl)-2-((((CIS)-4-phenylcyclohexyl)oxy)methyl)pyrrolidin-3-yl)methanesulfonamide]
